Data published in PubChem BioAssay AID700 (NMMLSC, 2007).
Calls of active or inactive are those of the source. How the calls were made is not given here.

What follows are compounds tested on bacterial quorum sensing reporter inhibition (assay: blockers of quorum-sensing reporter signal in bacteria – dose response (AID 700)).

Compound | IC50
O=C(NC(=O)c1cccc(F)c1)OC[C@@H]1CCCN2CCCC[C@H]12 | > 20 µM (inactive)
CC(C)CCOP(=O)(c1ccc(N(C)C)cc1)C(O)c1ccccc1F (stereo not drawn) | > 20 µM (inactive)
Fc1ccc(-c2nnc3ccc(N4CCc5ccccc5C4)nn23)cc1 | > 20 µM (inactive)
COC(=O)c1ccc(CSc2nc3c(cnn3-c3ccc(Cl)cc3)c(=O)[nH]2)o1 | > 20 µM (inactive)
CCc1ccc2[nH]c(=O)c(CN(CCCN3CCOCC3)C(=O)Nc3ccc(Cl)cc3)cc2c1 | > 20 µM (inactive)
CC1CCN(S(=O)(=O)c2ccc3c(c2)oc(=O)n3CC(=O)NCc2ccc3c(c2)OCO3)CC1 | > 20 µM (inactive)
O=C(c1ccc(Br)o1)N1CCN(c2ccc3nnc(-c4ccccc4)n3n2)CC1 | > 20 µM (inactive)
Cc1cccc2sc(NC(=O)CN(C)S(=O)(=O)c3ccc(Br)s3)nc12 | > 20 µM (inactive)
CCc1ccc2[nH]c(=O)c(CN(CCCN3CCOCC3)C(=O)Nc3ccc(F)cc3)cc2c1 | > 20 µM (inactive)
CC(C)[C@@]1(NC(=O)[C@@H]2C[C@@H]3c4cccc5[nH]cc(c45)C[C@H]3N(C)C2)O[C@@]2(O)[C@@H]3CCCN3C(=O)[C@H](Cc3ccccc3)N2C1=O | > 20 µM (inactive)
Cc1nn(C(C)(C)C)c(OC(=O)C2CCCC2)c1S(=O)(=O)c1ccccc1 | > 20 µM (inactive)
O=C(NCCN1CCN(c2ccccc2)CC1)c1cccn2c(=O)c3ccccc3nc12 | > 20 µM (inactive)
O=C(CN1C(=O)CC(c2ccco2)Sc2ccccc21)NCc1ccc2c(c1)OCO2 (stereo not drawn) | 16.5 µM (inactive)
O=C(OCC(O)CO)c1ccccc1Nc1ccnc2cc(Cl)ccc12 (stereo not drawn) | > 20 µM (inactive)
Cc1ccc2cc(CN(CCN3CCCC3)C(=O)Nc3ccccc3)c(=O)[nH]c2c1C | > 20 µM (inactive)
Cn1c(=O)n(CCc2ccccc2)c(=O)c2c1nc1n2CCN1Cc1ccco1 | > 20 µM (inactive)
COC(=O)c1[nH]nc2c1C(=O)N(C1CCCCC1)C2=O | 12.7 µM (inactive)
CCc1oc2ccccc2c1C(=O)c1cc(Br)c(O)c(Br)c1 | 0.74 µM
CCCCC(=O)Nc1cc(C)c2c(=O)oc3ccccc3c2n1 | > 20 µM (inactive)
CCc1c(C)sc(NC(=O)c2cc(C)on2)c1C#N | > 20 µM (inactive)
Cn1c(=O)oc2cc(S(=O)(=O)NCCN3CCN(c4ccccc4F)CC3)ccc21 | > 20 µM (inactive)
Oc1ccc(-c2nc3ncccn3c2Nc2ccc3c(c2)OCCO3)cc1 | > 20 µM (inactive)
COc1ccc(N(CC(=O)Nc2nc3ccc(C)cc3s2)S(=O)(=O)c2c(C)nn(C)c2C)cc1 | > 20 µM (inactive)
CC1CCCN(C(C(=O)Nc2ccc3c(c2)OCO3)c2ccccc2)C1 (stereo not drawn) | 1.25 µM

Compound | IC50
CC1(C)S[C@@H]2[C@H](NC(=O)[C@H](N)c3ccccc3)C(=O)N2[C@H]1C(=O)O | > 20 µM (inactive)
O=C(Nc1nc2c(s1)CCc1ccccc1-2)c1cccs1 | > 20 µM (inactive)
O=C(O)CCc1cc(I)c(Oc2ccc(O)c(I)c2)c(I)c1 | 1.78 µM
CCOc1ccc(NC(=O)C2CCCN(S(=O)(=O)c3c(C)nn(C)c3C)C2)cc1 (stereo not drawn) | > 20 µM (inactive)
Cc1c(Cl)cccc1Nc1ccccc1C(=O)O | 1.89 µM
c1ccc(-c2ccc(C(c3ccccc3)n3ccnc3)cc2)cc1 (stereo not drawn) | > 20 µM (inactive)
CC1CCCCN1S(=O)(=O)c1ccc(C(=O)Nc2nnc(-c3cccs3)o2)cc1 (stereo not drawn) | > 20 µM (inactive)
O=C(O)c1ccccc1Nc1cccc(C(F)(F)F)c1 | > 20 µM (inactive)
CC[C@H]1OC(=O)C[C@@H](O)[C@H](C)[C@@H](O[C@@H]2O[C@H](C)C[C@H](N(C)C)[C@H]2O)[C@@H](CC=O)C[C@@H](C)C(=O)C=C[C@]2(C)O[C@H]2[C@@H]1C | 1.14 µM
CC1CN(c2nc3ccccc3nc2C(C#N)C(=O)OC2CCCCC2)CC(C)O1 (stereo not drawn) | > 20 µM (inactive)
COc1ccc(Nc2nc(-c3sc(N)nc3C)cs2)cc1 | > 20 µM (inactive)
O=C1CS/C(=N\C(=O)N2c3ccccc3Sc3ccccc32)N1 | 1.42 µM
CC(C)CC(NC(=O)c1ccco1)C(=O)Nc1ccc2c(c1)OCCO2 (stereo not drawn) | > 20 µM (inactive)
CCCCOC(=O)Cn1c(=O)oc2ccc(C)cc21 | > 20 µM (inactive)
N#Cc1c(NC(=O)COC(=O)C2CC3C=CC2C3)oc(-c2ccccc2)c1-c1ccccc1 (stereo not drawn) | 0.68 µM
O=C(NCC(c1cccnc1)N1CCN(c2ccccc2F)CC1)c1cccc(Cl)c1 (stereo not drawn) | 1.97 µM
CCc1c(C)nc(SCC(=O)Nc2ccc(Br)cc2)[nH]c1=O | > 20 µM (inactive)
COC(=O)C1C(=O)C2=C(CC1C)NC(C)=C(C(=O)OC1CCCCC1)C2c1ccc(N(C)C)cc1 (stereo not drawn) | 9.7 µM
CC(C)N=c1cc2n(-c3ccc(Cl)cc3)c3ccccc3nc-2cc1Nc1ccc(Cl)cc1 | > 20 µM (inactive)
N#Cc1c(NC(NC(=O)c2ccco2)C(=O)c2ccccc2)sc2c1CCCC2 (stereo not drawn) | > 20 µM (inactive)
CCCn1c(=S)[nH]c2cc(C(=O)N3CCN(c4ccccc4OC)CC3)ccc2c1=O | > 20 µM (inactive)
COc1cccc(Oc2cnc(N)nc2-c2ccc(OC)cc2O)c1 | > 20 µM (inactive)
COc1ccc(-c2nc(C(N)=O)c3[nH]c(=O)n(-c4cccc(Cl)c4)c3n2)cc1OC | > 20 µM (inactive)
Cc1ccc(N2CC(C(=O)NC3=NCCS3)CC2=O)cc1 (stereo not drawn) | > 20 µM (inactive)

Compound | IC50
CCn1c2ccccc2c2cc(NC(=O)CSc3nnc(C4CC4)n3Cc3ccco3)ccc21 | > 20 µM (inactive)
Cc1ccsc1-c1nc(CSCC(=O)N2CCN(c3ccccc3)CC2)c(C)o1 | 12.4 µM (inactive)
Cc1nc2ccccn2c1/C(O)=C1\C(=O)C(=O)N(CCCN(C)C)C1c1ccc(F)cc1 (stereo not drawn) | > 20 µM (inactive)
CCOC(=O)Cn1c(=O)oc2cc(S(=O)(=O)Nc3ccc(N(CC)CC)cc3C)ccc21 | > 20 µM (inactive)
CCOC(=O)N1CCC(NC(=O)Cn2nc(Cc3ccncc3)c3ccccc3c2=O)CC1 | 5.8 µM
Cc1cc(NC(=O)C2CCCC2)nc2c1c(=O)oc1ccccc12 | 18.4 µM (inactive)
Cc1cccc(Nc2ccccc2C(=O)O)c1C | 1.02 µM
Cn1cc(/C=N/n2cnc3sc4c(c3c2=O)CCCC4)c2ccccc21 | > 20 µM (inactive)
COc1cccc(-c2cc(C(F)(F)F)nc(NCc3ccco3)n2)c1 | > 20 µM (inactive)
Cc1cc(NC(=O)CC(C)(C)C)nc2c1c(=O)oc1ccccc12 | > 20 µM (inactive)
CCc1ccc(S(=O)(=O)c2n[nH]n3c2nc(=O)c2ccccc23)cc1 | 1.46 µM
COc1ccc(O)c(C(=O)CC(=O)c2ccc(F)cc2)c1 | > 20 µM (inactive)
CC(C)Cc1cc(C(=O)Nc2sc3c(c2C#N)CCCC3)no1 | > 20 µM (inactive)
CCOC(=O)C(C)(C)Sc1nc2c(cnn2-c2ccc(C)cc2)c(=O)[nH]1 | > 20 µM (inactive)
Cc1ccc(-c2nc(CS(=O)CC(=O)NCCC(C)C)c(C)o2)cc1 (stereo not drawn) | > 20 µM (inactive)
CCCCc1oc2ccccc2c1C(=O)c1cc(I)c(OCCN(CC)CC)c(I)c1 | > 20 µM (inactive)
CCc1ccc(N/C(SCc2cccc(F)c2)=C(/C#N)C(=O)NCc2ccco2)cc1 | > 20 µM (inactive)
O=C(CSc1n[nH]c(-c2ccco2)n1)Nc1sc2c(c1C(=O)Nc1ccccc1)CCCC2 | 3.32 µM
c1csc(CCNc2ncnc3sc4c(c23)CCC4)c1 | > 20 µM (inactive)
Cc1ccc(C)c2[nH]c(=O)c(CN(CCN3CCCC3)C(=O)Nc3ccc(F)cc3)cc12 | > 20 µM (inactive)
O=C(NCCCc1ccccc1)c1cnc2n(c1=O)CCS2 | > 20 µM (inactive)
CCOC(=O)C1=C(C)NC(C)=C(C(=O)OC)C1c1cccc(Cl)c1Cl (stereo not drawn) | > 20 µM (inactive)
Cc1ccc2[nH]c(=O)c(CN(CCCN(C)C)C(=O)Nc3cccc(Cl)c3)cc2c1 | > 20 µM (inactive)
CCN1CCCC1CN(Cc1cc2c(C)cc(C)cc2[nH]c1=O)C(=O)NC1CCCCC1 (stereo not drawn) | > 20 µM (inactive)

Compound | IC50
Cc1ccc2[nH]c(=O)c(CN(CCCN(C)C)C(=O)Nc3ccc(Cl)cc3)cc2c1 | 9.03 µM
COc1ccc(OC)c2[nH]c(=O)c(CCNC(=O)C(C)C)cc12 | > 20 µM (inactive)
CCc1ccc2[nH]c(=O)c(CN(CCCN3CCOCC3)C(=O)Nc3cccc(Cl)c3)cc2c1 | > 20 µM (inactive)
COc1ccc(NC(=O)c2c(SC)nsc2SC)cc1 | > 20 µM (inactive)
Cc1ccc(C)c(N2CCN(C(=O)CCCCn3c(=O)[nH]c4ccccc4c3=O)CC2)c1 | > 20 µM (inactive)
Nc1c(C(O)(C(F)(F)F)C(F)(F)F)ccc2ccccc12 | > 20 µM (inactive)
Cc1ccc(C)c2[nH]c(=O)c(CN(CCN3CCCC3)C(=O)Nc3cccc(Cl)c3)cc12 | 8.19 µM
Cc1ccc(NC(=O)c2cc(C)on2)cc1 | > 20 µM (inactive)
Cc1cc(C)c2cc(CN(CCN3CCCC3)C(=O)Nc3ccc(F)cc3)c(=O)[nH]c2c1 | > 20 µM (inactive)
COc1cc2[nH]c(=O)n(CCC(=O)N3CCN(c4cc(Cl)ccc4C)CC3)c(=O)c2cc1OC | > 20 µM (inactive)
CCc1oc2ccccc2c1C(=O)c1ccc(O)cc1 | 3.28 µM
Clc1ccc(OCc2nnc3n2N=C(c2ccc4c(c2)OCCO4)CS3)c(Cl)c1 | > 20 µM (inactive)
Cn1cccc1Cc1nnc(SCC(=O)Nc2ccccc2)n1-c1ccc(F)cc1 | > 20 µM (inactive)
Cc1ccc(Cl)c(Nc2ccccc2C(=O)O)c1Cl | 3.13 µM
CCC(=O)O[C@@H]1CC(=O)O[C@H](C)CC=CC=C[C@@H](O)[C@H](C)C[C@H](CC=O)[C@H](O[C@H]2O[C@H](C)[C@@H](O[C@H]3C[C@@](C)(O)[C@@H](OC(=O)CC)[C@H](C)O3)[C@H](N(C)C)[C@H]2O)[C@H]1OC | 0.55 µM
COc1ccc(-c2cnc(SCC(=O)Nc3ccc4c(c3)OCO4)n2Cc2ccco2)cc1 | 16.3 µM (inactive)
O=C(CCCCn1c(=O)[nH]c2ccccc2c1=O)N1CCN(c2cccc(C(F)(F)F)c2)CC1 | > 20 µM (inactive)
COc1ccc(-c2oc3ncn(CCN4CCOCC4)c(=N)c3c2-c2ccc(OC)cc2)cc1 | > 20 µM (inactive)
CC1CCCN(C(C(=O)Nc2ccc3c(c2)OCCO3)c2ccccc2)C1 (stereo not drawn) | > 20 µM (inactive)
COCCn1nnnc1C(c1cc2cc(OC)ccc2[nH]c1=O)N1CCC(Cc2ccccc2)CC1 (stereo not drawn) | > 20 µM (inactive)
O=C(CN1C(=O)CC(c2ccco2)Sc2ccccc21)Nc1ccc2c(c1)OCCO2 (stereo not drawn) | > 20 µM (inactive)
